Format in all cases: functional
One assay has as its system Bacillus spizizenii. As to the kind of experiment: Antimicrobial activity against Bacillus subtilis subsp. spizizenii ATCC 6633 after 24 hr by broth dilution method. The settings on record: ATCC 6633, 24 h.
Assay [1] concerns Staphylococcus epidermidis. The experiment in a line: Antimicrobial activity against Staphylococcus epidermidis ATCC 12228 after 24 hr by broth dilution method. The settings on record: ATCC 12228, 24 h. For orientation: Dilution methods test growth across graded concentrations, often in twofold steps.
The subject of another assay is Micrococcus luteus. The experiment in a line: Antimicrobial activity against Micrococcus luteus ATCC 4698 after 24 hr by broth dilution method. The settings on record: ATCC 4698, 24 h.
A further assay deals with Staphylococcus aureus. The experiment in a line: Antimicrobial activity against Staphylococcus aureus ATCC 25923 after 24 hr by broth dilution method. As to conditions: ATCC 25923, 24 h.
The test system of the next assay is Staphylococcus hominis. As to the kind of experiment: Antimicrobial activity against Staphylococcus hominis ATCC 27844 after 24 hr by broth dilution method. As to conditions: ATCC 27844, 24 h.
A further assay has as its system Bacillus pumilus. The experiment in a line: Antimicrobial activity against Bacillus pumilus ATCC 14884 after 24 hr by broth dilution method. As to conditions: ATCC 14884, 24 h.
The next assay relates to Bacillus cereus. As to the kind of experiment: Antimicrobial activity against Bacillus cereus ATCC 11778 after 24 hr by broth dilution method. As to conditions: ATCC 11778, 24 h.
The subject of the next assay is Proteus vulgaris. As to the kind of experiment: Antimicrobial activity against Proteus vulgaris ATCC 13315 after 24 hr by broth dilution method. The settings on record: ATCC 13315, 24 h.
The test system of the next assay is Proteus mirabilis. The experiment in a line: Antimicrobial activity against Proteus mirabilis ATCC 49565 after 24 hr by broth dilution method. The settings on record: ATCC 49565, 24 h.
The subject of the next assay is Salmonella typhi. As to the kind of experiment: Antimicrobial activity against Salmonella enterica subsp. enterica serovar Typhi ATCC 19430 after 24 hr by broth dilution method. As to conditions: ATCC 19430, 24 h.
In another assay the test system is Klebsiella pneumoniae. The experiment in a line: Antimicrobial activity against Klebsiella pneumoniae ATCC 13883 after 24 hr by broth dilution method. As to conditions: ATCC 13883, 24 h.
The test system of another assay is Escherichia coli. As to the kind of experiment: Antimicrobial activity against Escherichia coli ATCC 25922 after 24 hr by broth dilution method. As to conditions: ATCC 25922, 24 h.
In the next assay the test system is Pseudomonas aeruginosa. The experiment in a line: Antimicrobial activity against Pseudomonas aeruginosa ATCC 10145 after 24 hr by broth dilution method. As to conditions: ATCC 10145, 24 h.
The next assay relates to Aspergillus niger. As to the kind of experiment: Antimicrobial activity against Aspergillus niger ATCC 9142 after 24 hr by broth dilution method. The settings on record: ATCC 9142, 24 h.
Another assay concerns Aspergillus awamori. The experiment in a line: Antimicrobial activity against Aspergillus awamori ATCC 22342 after 24 hr by broth dilution method. The settings on record: ATCC 22342, 24 h.
Another assay has as its system Candida albicans. As to the kind of experiment: Antimicrobial activity against Candida albicans ATCC 10231 after 24 hr by broth dilution method. As to conditions: ATCC 10231, 24 h.
The test system of the next assay is Alternaria alternata. The experiment in a line: Antimicrobial activity against Alternaria alternata ATCC 66868 after 24 hr by broth dilution method. As to conditions: ATCC 66868, 24 h.
For another assay, the system named is Microsporum canis. As to the kind of experiment: Antimicrobial activity against Arthroderma otae ATCC 11622 after 24 hr by broth dilution method. The settings on record: ATCC 11622, 24 h.
The next assay deals with Rhizoctonia solani. As to the kind of experiment: Antimicrobial activity against Rhizoctonia solani ATCC 76131 after 24 hr by broth dilution method. The settings on record: ATCC 76131, 24 h.
Another assay deals with Trichophyton longifusum. The experiment in a line: Antimicrobial activity against Trichophyton longifusum ATCC 22397 after 24 hr by broth dilution method. The settings on record: ATCC 22397, 24 h.
A further assay has as its system Fusarium solani. The experiment in a line: Antimicrobial activity against Fusarium solani ATCC 38136 after 24 hr by broth dilution method. As to conditions: ATCC 38136, 24 h.
The test system of a further assay is Trichoderma viride. As to the kind of experiment: Antimicrobial activity against Hypocrea rufa ATCC 52440 after 24 hr by broth dilution method. As to conditions: ATCC 52440, 24 h.
Another assay has as its system Aspergillus flavus. The experiment in a line: Antimicrobial activity against Aspergillus flavus ATCC 15517 after 24 hr by broth dilution method. As to conditions: ATCC 15517, 24 h.
The test system of a further assay is Aspergillus fumigatus. As to the kind of experiment: Antimicrobial activity against Aspergillus fumigatus after 24 hr by broth dilution method.

In brackets after ≈: the same amount, converted by molar mass.

For `O=C1Nc2ccc(Cl)cc2/C1=N/N1C(=O)C(Cl)C1c1ccco1` (stereo unspecified), the MIC against Bacillus spizizenii was found to be 75 µg/mL (≈ 214 µM); in [1], 75 µg/mL (≈ 214 µM); against Micrococcus luteus, 37.5 µg/mL (≈ 107 µM); with Staphylococcus aureus it was 37.5 µg/mL (≈ 107 µM); against Staphylococcus hominis, 37.5 µg/mL (≈ 107 µM); in the assay on Bacillus pumilus, 37.5 µg/mL (≈ 107 µM). The MIC worked out at 37.5 µg/mL (≈ 107 µM) in the assay on Bacillus cereus; 37.5 µg/mL (≈ 107 µM) against Proteus vulgaris; 37.5 µg/mL (≈ 107 µM) in the assay on Proteus mirabilis; 75 µg/mL (≈ 214 µM) against Salmonella typhi; 75 µg/mL (≈ 214 µM) in the assay with Klebsiella pneumoniae; 37.5 µg/mL (≈ 107 µM) with Escherichia coli. Moreover, the MIC against Pseudomonas aeruginosa came to 37.5 µg/mL (≈ 107 µM); against Aspergillus niger, 18.8 µg/mL (≈ 53.5 µM); against Aspergillus awamori, 37.5 µg/mL (≈ 107 µM); against Candida albicans it was 18.8 µg/mL (≈ 53.5 µM); against Alternaria alternata it was 37.5 µg/mL (≈ 107 µM); with Microsporum canis, 37.5 µg/mL (≈ 107 µM). The MIC was 37.5 µg/mL (≈ 107 µM) with Rhizoctonia solani; 18.8 µg/mL (≈ 53.5 µM) with Trichophyton longifusum; 37.5 µg/mL (≈ 107 µM) against Fusarium solani; 37.5 µg/mL (≈ 107 µM) against Trichoderma viride; 37.5 µg/mL (≈ 107 µM) with Aspergillus flavus; 18.8 µg/mL (≈ 53.5 µM) against Aspergillus fumigatus.
For the compound `O=C1Nc2ccc(Cl)cc2/C1=N/N1C(=O)C(Cl)C1c1ccccc1O` (stereo unspecified), the MIC in the assay on Bacillus spizizenii came out at 300 µg/mL (≈ 797 µM); in [1], 300 µg/mL (≈ 797 µM); in the assay with Micrococcus luteus it was 150 µg/mL (≈ 399 µM); against Staphylococcus aureus, 150 µg/mL (≈ 399 µM); against Staphylococcus hominis, 300 µg/mL (≈ 797 µM); with Bacillus pumilus, 300 µg/mL (≈ 797 µM). In addition, the MIC was found to be 300 µg/mL (≈ 797 µM) against Bacillus cereus; 150 µg/mL (≈ 399 µM) with Proteus vulgaris; 150 µg/mL (≈ 399 µM) in the assay on Proteus mirabilis; 300 µg/mL (≈ 797 µM) with Salmonella typhi; 300 µg/mL (≈ 797 µM) against Klebsiella pneumoniae; 150 µg/mL (≈ 399 µM) in the assay on Escherichia coli. The minimal inhibitory concentration (MIC) was 300 µg/mL (≈ 797 µM) in the assay with Pseudomonas aeruginosa; 75 µg/mL (≈ 199 µM) against Aspergillus niger; 150 µg/mL (≈ 399 µM) against Aspergillus awamori; 75 µg/mL (≈ 199 µM) with Candida albicans; 150 µg/mL (≈ 399 µM) in the assay with Alternaria alternata; 150 µg/mL (≈ 399 µM) against Microsporum canis. The MIC with Rhizoctonia solani was 150 µg/mL (≈ 399 µM); in the assay with Trichophyton longifusum, 150 µg/mL (≈ 399 µM); in the assay with Fusarium solani, 75 µg/mL (≈ 199 µM); in the assay on Trichoderma viride, 150 µg/mL (≈ 399 µM); in the assay on Aspergillus flavus, 150 µg/mL (≈ 399 µM); with Aspergillus fumigatus, 150 µg/mL (≈ 399 µM).
With `O=C1Nc2ccc(Cl)cc2/C1=N/N1C(=O)C(Cl)C1c1ccc(O)cc1` (stereo unspecified), the minimal inhibitory concentration (MIC) against Bacillus spizizenii was 9.37 µg/mL (≈ 24.9 µM); in [1], 9.37 µg/mL (≈ 24.9 µM); with Micrococcus luteus, 18.8 µg/mL (≈ 49.8 µM); against Staphylococcus aureus it was 18.8 µg/mL (≈ 49.8 µM); in the assay on Staphylococcus hominis it was 18.8 µg/mL (≈ 49.8 µM); in the assay on Bacillus pumilus it was 9.37 µg/mL (≈ 24.9 µM). The MIC was found to be 9.37 µg/mL (≈ 24.9 µM) in the assay with Bacillus cereus; 9.37 µg/mL (≈ 24.9 µM) against Proteus vulgaris; 9.37 µg/mL (≈ 24.9 µM) with Proteus mirabilis; 9.37 µg/mL (≈ 24.9 µM) against Salmonella typhi; 18.8 µg/mL (≈ 49.8 µM) against Klebsiella pneumoniae; 9.37 µg/mL (≈ 24.9 µM) against Escherichia coli. For the same compound, the minimum inhibitory concentration (MIC) against Pseudomonas aeruginosa stood at 9.37 µg/mL (≈ 24.9 µM); in the assay on Aspergillus niger it was 4.68 µg/mL (≈ 12.4 µM); against Aspergillus awamori, 4.68 µg/mL (≈ 12.4 µM); in the assay with Candida albicans it was 4.68 µg/mL (≈ 12.4 µM); against Alternaria alternata it was 4.68 µg/mL (≈ 12.4 µM); against Microsporum canis it was 4.68 µg/mL (≈ 12.4 µM). Besides, the minimal inhibitory concentration (MIC) in the assay with Rhizoctonia solani amounted to 4.68 µg/mL (≈ 12.4 µM); with Trichophyton longifusum, 4.68 µg/mL (≈ 12.4 µM); in the assay with Fusarium solani, 9.37 µg/mL (≈ 24.9 µM); against Trichoderma viride it was 4.68 µg/mL (≈ 12.4 µM); against Aspergillus flavus, 4.68 µg/mL (≈ 12.4 µM); with Aspergillus fumigatus, 4.68 µg/mL (≈ 12.4 µM).
On to `CN(C)c1ccc(C2C(Cl)C(=O)N2/N=C2\C(=O)Nc3ccc(Cl)cc32)cc1` (stereo unspecified), for which the MIC was found to be 18.8 µg/mL (≈ 46.5 µM) in the assay with Bacillus spizizenii; 9.37 µg/mL (≈ 23.2 µM) in assay [1]; 18.8 µg/mL (≈ 46.5 µM) in the assay on Micrococcus luteus; 18.8 µg/mL (≈ 46.5 µM) against Staphylococcus aureus; 18.8 µg/mL (≈ 46.5 µM) with Staphylococcus hominis; 9.37 µg/mL (≈ 23.2 µM) with Bacillus pumilus. In addition, the minimum inhibitory concentration (MIC) against Bacillus cereus was found to be 18.8 µg/mL (≈ 46.5 µM); with Proteus vulgaris, 9.37 µg/mL (≈ 23.2 µM); against Proteus mirabilis, 18.8 µg/mL (≈ 46.5 µM); against Salmonella typhi, 9.37 µg/mL (≈ 23.2 µM); in the assay with Klebsiella pneumoniae, 9.37 µg/mL (≈ 23.2 µM); with Escherichia coli, 9.37 µg/mL (≈ 23.2 µM). Also, the minimum inhibitory concentration (MIC) in the assay on Pseudomonas aeruginosa worked out at 9.37 µg/mL (≈ 23.2 µM); in the assay on Aspergillus niger, 9.37 µg/mL (≈ 23.2 µM); against Aspergillus awamori it was 9.37 µg/mL (≈ 23.2 µM); against Candida albicans, 4.68 µg/mL (≈ 11.6 µM); in the assay on Alternaria alternata it was 4.68 µg/mL (≈ 11.6 µM); in the assay with Microsporum canis it was 4.68 µg/mL (≈ 11.6 µM). In addition, the MIC against Rhizoctonia solani came out at 9.37 µg/mL (≈ 23.2 µM); against Trichophyton longifusum it was 4.68 µg/mL (≈ 11.6 µM); with Fusarium solani, 9.37 µg/mL (≈ 23.2 µM); with Trichoderma viride, 4.68 µg/mL (≈ 11.6 µM); against Aspergillus flavus, 4.68 µg/mL (≈ 11.6 µM); against Aspergillus fumigatus, 4.68 µg/mL (≈ 11.6 µM).

As a reminder, the MIC is the least concentration at which growth counts as inhibited.

For the origin of these results see ChEMBL document CHEMBL3046063, “Synthesis and antimicrobial activity of 5-chloroindoline-2,3-dione derivatives” (2012).
